Reference: patent US20250332268A1, “CONJUGATE AND COMPOSITION AS WELL AS PREPARATION METHOD THEREFOR AND USE THEREOF” (priority 2022, published 2025)
Like-named read-outs stand apart in the source and are kept apart here. Non-standard residues stand in square brackets, D forms with d. Residues, ends and D or L forms follow the SMILES beside them. *: point of attachment. {Cy5} = Cy5 fluorescent dye; Dolaproine = CO[C@@H]([C@@H]1CCCN1)[C@@H](C)C(=O)O; Dil = CC[C@H](C)[C@H](NC)[C@@H](CC(=O)O)OC; X1 = C[C@@H](N*)[C@@H](O)c1ccccc1; NMeV = CN[C@H](C(=O)O)C(C)C

Experiments:
[1] = test system: U118MG glioma cells subcutaneous tumor; test: In vivo anti-tumor activity, tumor volume (Experimental Example 3); design: species or system NOD-SCID mice
Method: In this experimental example, the in vivo anti-tumor activity of the resulting conjugate 20 in mice was investigated.
The mice in this experiment were purchased from SPF Co., Ltd, the germline was NOD-SCID, the grade was SPF, male, 6-8 weeks old; U118MG glioma cells were purchased from Jennio.
The above culture medium containing U118MG cells was inoculated on subcutaneous site of the right forelimb of mice, and the injection volume was 100 μL. Each mouse was inoculated with 1×10^7 U118MG glioma cells.
The above resulting conjugate AP2 was formulated into 1.94 mg/mL of solution with PBS. Conjugate 20 was formulated into 0.625 mg/mL, 1.25 mg/mL and 2.06 mg/mL of solution with PBS, respectively (all calculated based on the amount of oligonucleotide). […]
For test group 3d, the above conjugate 20 solution with a concentration of 0.625 mg/mL was administered by tail intravenous injection with a single administration volume of 10 μL/g, a single administration dosage of […] (calculated based on the mass of oligonucleotide), wherein the dosage of MMAE contained was equivalent to 0.3 mg/kg. […]
Long diameter and short diameter of the tumors were measured by in vitro measurement method. The tumor volume was calculated according to the formula ½(long diameter×short diameter^2). […]

[2] = test system: U118MG subcutaneous tumor; test: In vivo activity of long-interval administration against U118MG subcutaneous tumor model mice (Experimental Example 7); design: species or system NOD-SCID mice; conditions: MMAE only, 0.1 mg/kg and 0.3 mg/kg subcutaneous on D8, D11, D15, D29, D32, D36
Method: According to the method of experimental example 2, 42 mice inoculated with U118MG subcutaneous tumor were obtained, and the mice were kept after injection.
MMAE was dissolved into solutions with a concentration of 0.03 mg/mL and 0.01 mg/mL with 10% DMSO+90% serum-free DMEM medium (volume ratio); conjugate 21 was dissolved into a solution with a concentration of 0.5 mg/mL and 0.165 mg/mL (calculated according to aptamer); and comparative conjugate 25 was dissolved into solutions with a concentration of 0.5 mg/mL and 0.165 mg/mL (calculated according to aptamer). […] The mice were weighed before administration, and the administration volume was calculated by weight.
For blank control group, each mouse was administered with DMEM medium with a single administration volume of 10 μL/g mouse body weight; For test group 7a, each mouse was administered with MMAE with a concentration of 0.01 mg/ml with a single administration volume of 10 μL/g mouse body weight. It was calculated that a single administration dosage was 0.1 mg/kg.
For test group 7b, each mouse was administered with conjugate 21 with a concentration of 0.165 mg/ml with a single administration volume of 10 μL/g mouse body weight. It was calculated that a single administration dosage was 1.65 mg/kg (the corresponding MMAE dosage was 0.1 mg/kg). […]

[3] = test system: A549 subcutaneous tumor (human lung adenocarcinoma cells); test: In vivo activity against A549 subcutaneous tumor model mice (Experimental Example 9); conditions: administered D8, D12, D15, D19 (MMAE equivalent 0.3 mg/kg) and D46, D50, D54 (0.6 mg/kg); versus 9b (MMAE) and 9e (comparative conjugate 24)
Method: According to the method of experimental example 2, 30 mice inoculated with A549 subcutaneous tumors were obtained, and the mice were kept after injection.
Conjugate 20 and conjugate 21 were dissolved into conjugate solutions with a concentration of 1 mg/mL (calculated according to aptamer) with serum-free DMEM medium. Comparative conjugate 24 were dissolved into a conjugate solution with a concentration of 0.8 mg/mL (calculated according to aptamer). MMAE was dissolved into a solution with a concentration of 0.06 mg/mL with 10% DMSO+90% serum-free DMEM medium (volume ratio).
7 days after the inoculation of A549 human lung cancer cells, all mice were grouped, with 6 mice in each group, and each mouse was administrated. The day of administration was designated as D8. The mice were weighed before administration, and the administration volume was calculated by the mouse body weight. […]
For blank control group 9a, each mouse was administered with DMEM with a single administration volume of 5 μL/g mouse body weight; For control group 9b, each mouse was administered with MMAE with a single administration volume of 5 μL/g mouse body weight. It was calculated that a single administration dosage was 0.3 mg/kg; […]
Tumor volumes were measured on D1, D9, D16, D19, D22, D26, D30, D36, D40, D43, D47, D50, D54, and D57. The blank control group was measured on D50, and then the experiment was terminated. […]

[4] = test system: U118MG orthotopic tumor (brain glioma); conditions: mouse, in vivo, iv, 3 mg/kg
Method: (§1) U118MG human glioma cells (purchased from Guangzhou Jennio Biotech Co., Ltd) were cultured in DMEM complete medium (MACGENE company, Cat No. CM15019) supplemented with 10% fetal bovine serum (FBS, RMBIO company) at 37° C. in an incubator containing 5% CO2/95% air.
(§2) The cells were digested with 0.25% pancreatic enzyme and collected. The supernatant was aspirated, and the cells were resuspended in DMEM medium supplemented with 10% FBS to formulate into cell culture medium with a concentration of 4×10^7 cells/mL.
(§3) Experimental animals were 6 NOD-SCID mice, male, 12 weeks old (purchased from SPF (Beijing) Biotechnology Co., LTD.). The above cell culture medium was inoculated into NOD-SCID mice. […]
(§4) The administration dosage of all animals was calculated based on their body weights, the administration volume was all 10 μL/g, the administration dosage was 3 mg/kg per animal (calculated based on the amount of aptamer), 2 mice were administrated in each group and designated as test group 4a and control group 4b, respectively. […]
(§5) 24 h after administration, one mouse in each group was respectively killed and brain tissue was taken, and the remaining mice were killed at 48 h after administration and brain tissues were taken. The brain tissues of mice were taken for fluorescence imaging in IVIS Lumina Series III.

[5] = test system: U118MG orthotopic tumor (brain glioma); test: In vivo distribution in U118MG cell orthotopic tumor model mice, brain fluorescence imaging (Experimental Example 4); conditions: 24 h and 48 h after administration; 3 mg/kg tail intravenous injection
Method: as §1, §2, §3, §4, §5

Compound: CC[C@H](C)[C@@H]([C@@H](CC(=O)N1CCC[C@H]1[C@H](OC)[C@@H](C)C(=O)N[C@H](C)[C@@H](O)c1ccccc1)OC)N(C)C(=O)[C@@H](NC(=O)[C@@H](NC)C(C)C)C(C)C [MMAE, Monomethyl auristatin E, reference compound] (H-[NMeV]V[Dil][Dolaproine]-X1)
- increase rate of tumor volume ([1]; control group 3c, 0.3 mg/kg tail intravenous injection on D8, D12, D16, D20): increase rate of tumor volume was decreased
- increase rates of tumor volume [2]: slightly decreased

Compound: MMAE-CmUmGmGmAmGmUmUmCmAmGmAmCmGmUmGmUmUmGmCmUmCmUmUmCmCmGmAmUmCmUmCm (DNA CUGGAGUUCAGACGUGUUGCUCUUCCGAUCUC; all 2'-O-methyl, backbone not given here; MMAE drug conjugated at 5' end via linker, further chemistry not fully specified) [Conjugate 20, dye group of AP2 replaced with MMAE; linking group 2-(phosphate ester group-(CH2)6—S—)-MC-Val-Cit-PAB]
- tumor volumes at each time period [3]: smaller than those of the control groups 9b and 9e

Compound: MMAE-CmUmGmGmAmGmUmUmCmAmGmAmCmGmUmUmGmUmGmCmUmCmUmUm (CUGGAGUUCAGACGUUGUGCUCUU; all 2'-O-methyl, backbone not given here; MMAE drug conjugated at 5' end via linker, further chemistry not fully specified) [Conjugate 21]
- tumor volumes at each time period [3]: smaller than those of the control groups 9b and 9e

Compound: CY5-CmUmGmGmAmGmUmUmCmAmGmAmCmGmUmGmUmUmGmCmUmCmUmUmCmCmGmAmUmCmUmCm (DNA CUGGAGUUCAGACGUGUUGCUCUUCCGAUCUC; all 2'-O-methyl, 5' {Cy5}, backbone not given here) [AP2]
- tumor volume over time ([1]; control group 3b, 15.5 mg/kg tail intravenous injection on D8, D12, D16, D20): increased rapidly
- fluorescence signal in brain tissue [4]: strong fluorescence signals at the inoculation tumor location

Compound: CY5-UfCfUfAUfGGCfUfGCfCfGAUfCfUfGGUfCfUfCfCfAUfGUfACfGUf (UCUAUGGCUGCCGAUCUGGUCUCCAUGUACGU; 2'-fluoro at CU, RNA at AG, 5' {Cy5}, backbone not given here) [Comparative AP19]
- fluorescence signal in brain tissue [5]: no fluorescence signal at all in the brain
